Assay results from PubChem BioAssay AID1963854 (Molecular Pharmacology Branch, DTP, NCI, 2024).
pIC50: −log10 of the molar value.

System: 186277-243-T-J2-PDC complex spheroid viability
Experiment: Anticancer human tumor 186277-243-T-J2-PDC patient-derived colon adenocarcinoma cell line growth inhibition [POLQ]
Settings: for pIC50: curve of first compound; for viability, T/C: stronger effect = lower value
How it was run: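 Three-cell-type spheroids modelling solid tumor plus stroma served as the readout system; POL inhibitors were tested individually and in combination, concentration ranges set by clinical Cmax where known.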

[1] = second compound 0.0316 µM, first compound 0.00316 µM
[2] = second compound 0.0316 µM, first compound 0.01 µM
[3] = second compound 0.0316 µM, first compound 0.0316 µM
[4] = second compound 0.0316 µM, first compound 0.1 µM
[5] = second compound 0.0316 µM, first compound 0.316 µM
[6] = second compound 0.0316 µM, first compound 1 µM
[7] = second compound 0.1 µM, first compound 0.00316 µM
[8] = second compound 0.1 µM, first compound 0.01 µM
[9] = second compound 0.1 µM, first compound 0.0316 µM
[10] = second compound 0.1 µM, first compound 0.1 µM
[11] = second compound 0.1 µM, first compound 0.316 µM
[12] = second compound 0.1 µM, first compound 1 µM
[13] = second compound 0.316 µM, first compound 0.00316 µM
[14] = second compound 0.316 µM, first compound 0.01 µM
[15] = second compound 0.316 µM, first compound 0.0316 µM
[16] = second compound 0.316 µM, first compound 0.1 µM
[17] = second compound 0.316 µM, first compound 0.316 µM
[18] = second compound 0.316 µM, first compound 1 µM
[19] = second compound 1 µM, first compound 0.00316 µM
[20] = second compound 1 µM, first compound 0.01 µM
[21] = second compound 1 µM, first compound 0.0316 µM
[22] = second compound 1 µM, first compound 0.1 µM
[23] = second compound 1 µM, first compound 0.316 µM
[24] = second compound 1 µM, first compound 1 µM
[25] = second compound 3.16 µM, first compound 0.00316 µM
[26] = second compound 3.16 µM, first compound 0.01 µM
[27] = second compound 3.16 µM, first compound 0.0316 µM
[28] = second compound 3.16 µM, first compound 0.1 µM
[29] = second compound 3.16 µM, first compound 0.316 µM
[30] = second compound 3.16 µM, first compound 1 µM
[31] = second compound 10 µM, first compound 0.00316 µM
[32] = second compound 10 µM, first compound 0.01 µM
[33] = second compound 10 µM, first compound 0.0316 µM
[34] = second compound 10 µM, first compound 0.1 µM
[35] = second compound 10 µM, first compound 0.316 µM
[36] = second compound 10 µM, first compound 1 µM
[37] = second compound 0.0316 µM, first compound 3.16 µM
[38] = second compound 0.0316 µM, first compound 10 µM
[39] = second compound 0.1 µM, first compound 3.16 µM
[40] = second compound 0.1 µM, first compound 10 µM
[41] = second compound 0.316 µM, first compound 3.16 µM
[42] = second compound 0.316 µM, first compound 10 µM
[43] = second compound 1 µM, first compound 3.16 µM
[44] = second compound 1 µM, first compound 10 µM
[45] = second compound 3.16 µM, first compound 3.16 µM
[46] = second compound 3.16 µM, first compound 10 µM
[47] = second compound 10 µM, first compound 3.16 µM
[48] = second compound 10 µM, first compound 10 µM
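Note: spheroids exposed to compounds for seven days.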
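Throughout, for viability, T/C: 100% = DMSO vehicle control viability.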

SMILES: CCc1c2c(nc3ccc(O)cc13)-c1cc3c(c(=O)n1C2)COC(=O)[C@]3(O)CC + Cc1cccc(N(C)C(=O)C2C(O)CCN2c2nc(C)cc(C(F)(F)F)c2C#N)c1
- pIC50 (second compound 0.0316 µM): 8.03
- pIC50 (second compound 0.1 µM): 7.99
- pIC50 (second compound 0.316 µM): 7.97
- pIC50 (second compound 1 µM): 8.00
- pIC50 (second compound 3.16 µM): 8.02
- pIC50 (second compound 10 µM): 8.26
- viability, T/C [1]: 69%
- viability, T/C [2]: 48.5%
- viability, T/C [3]: 27%
- viability, T/C [4]: 12.7%
- viability, T/C [5]: 10.5%
- viability, T/C [6]: 7.92%
- viability, T/C [7]: 74%
- viability, T/C [8]: 50.3%
- viability, T/C [9]: 25.7%
- viability, T/C [10]: 12.8%
- viability, T/C [11]: 9.86%
- viability, T/C [12]: 7.71%
- viability, T/C [13]: 66.5%
- viability, T/C [14]: 51.6%
- viability, T/C [15]: 27.9%
- viability, T/C [16]: 13.8%
- viability, T/C [17]: 9.55%
- viability, T/C [18]: 8.34%
- viability, T/C [19]: 73%
- viability, T/C [20]: 50.3%
- viability, T/C [21]: 24%
- viability, T/C [22]: 12.7%
- viability, T/C [23]: 10.4%
- viability, T/C [24]: 7.86%
- viability, T/C [25]: 59.1%
- viability, T/C [26]: 50.1%
- viability, T/C [27]: 24.3%
- viability, T/C [28]: 12.1%
- viability, T/C [29]: 9.42%
- viability, T/C [30]: 6.8%
- viability, T/C [31]: 58.6%
- viability, T/C [32]: 40.8%
- viability, T/C [33]: 21%
- viability, T/C [34]: 9.71%
- viability, T/C [35]: 8.72%
- viability, T/C [36]: 6.68%

SMILES: CC[C@@]1(O)C(=O)OCc2c1cc1n(c2=O)Cc2cc3c(CN(C)C)c(O)ccc3nc2-1 + Nc1ccc(C#CCN(C(=O)Cc2ncc(C(F)(F)F)cc2C(F)(F)F)c2ccc(F)cc2)nn1
- pIC50 (second compound 0.0316 µM): < 7.00
- pIC50 (second compound 0.1 µM): < 7.00
- pIC50 (second compound 0.316 µM): < 7.00
- pIC50 (second compound 1 µM): < 7.00
- pIC50 (second compound 3.16 µM): < 7.00
- pIC50 (second compound 10 µM): < 7.00
- viability, T/C (second compound 0.0316 µM, first compound 0.000316 µM): 114%
- viability, T/C (second compound 0.0316 µM, first compound 0.001 µM): 98%
- viability, T/C [1]: 123%
- viability, T/C [2]: 114%
- viability, T/C [3]: 136%
- viability, T/C [4]: 91.7%
- viability, T/C (second compound 0.1 µM, first compound 0.000316 µM): 109%
- viability, T/C (second compound 0.1 µM, first compound 0.001 µM): 93.8%
- viability, T/C [7]: 90.6%
- viability, T/C [8]: 129%
- viability, T/C [9]: 128%
- viability, T/C [10]: 88.1%
- viability, T/C (second compound 0.316 µM, first compound 0.000316 µM): 92.9%
- viability, T/C (second compound 0.316 µM, first compound 0.001 µM): 87.2%
- viability, T/C [13]: 108%
- viability, T/C [14]: 133%
- viability, T/C [15]: 124%
- viability, T/C [16]: 83.8%
- viability, T/C (second compound 1 µM, first compound 0.000316 µM): 97.3%
- viability, T/C (second compound 1 µM, first compound 0.001 µM): 105%
- viability, T/C [19]: 117%
- viability, T/C [20]: 115%
- viability, T/C [21]: 130%
- viability, T/C [22]: 81.1%
- viability, T/C (second compound 3.16 µM, first compound 0.000316 µM): 89.2%
- viability, T/C (second compound 3.16 µM, first compound 0.001 µM): 91.5%
- viability, T/C [25]: 104%
- viability, T/C [26]: 122%
- viability, T/C [27]: 124%
- viability, T/C [28]: 79.9%
- viability, T/C (second compound 10 µM, first compound 0.000316 µM): 111%
- viability, T/C (second compound 10 µM, first compound 0.001 µM): 89.7%
- viability, T/C [31]: 116%
- viability, T/C [32]: 121%
- viability, T/C [33]: 107%
- viability, T/C [34]: 70.6%

SMILES: O=C(c1cc(Cc2n[nH]c(=O)c3ccccc23)ccc1F)N1CCN(C(=O)C2CC2)CC1 + Nc1ccc(C#CCN(C(=O)Cc2ncc(C(F)(F)F)cc2C(F)(F)F)c2ccc(F)cc2)nn1
- pIC50 (second compound 0.0316 µM): < 5.00
- pIC50 (second compound 0.1 µM): < 5.00
- pIC50 (second compound 0.316 µM): < 5.00
- pIC50 (second compound 1 µM): < 5.00
- pIC50 (second compound 3.16 µM): < 5.00
- pIC50 (second compound 10 µM): < 5.00
- viability, T/C [3]: 105%
- viability, T/C [4]: 89.9%
- viability, T/C [5]: 106%
- viability, T/C [6]: 92.3%
- viability, T/C [37]: 107%
- viability, T/C [38]: 121%
- viability, T/C [9]: 97.5%
- viability, T/C [10]: 91.6%
- viability, T/C [11]: 111%
- viability, T/C [12]: 101%
- viability, T/C [39]: 104%
- viability, T/C [40]: 117%
- viability, T/C [15]: 100%
- viability, T/C [16]: 96.7%
- viability, T/C [17]: 98.2%
- viability, T/C [18]: 93.7%
- viability, T/C [41]: 102%
- viability, T/C [42]: 120%
- viability, T/C [21]: 96.1%
- viability, T/C [22]: 101%
- viability, T/C [23]: 98.7%
- viability, T/C [24]: 105%
- viability, T/C [43]: 115%
- viability, T/C [44]: 108%
- viability, T/C [27]: 95%
- viability, T/C [28]: 107%
- viability, T/C [29]: 110%
- viability, T/C [30]: 95.2%
- viability, T/C [45]: 110%
- viability, T/C [46]: 105%
- viability, T/C [33]: 106%
- viability, T/C [34]: 110%
- viability, T/C [35]: 99.5%
- viability, T/C [36]: 102%
- viability, T/C [47]: 117%
- viability, T/C [48]: 95.1%

SMILES: CC(C)n1c(=O)n(C)c2cnc3cc(F)c(-c4ccc(OCCCN5CCCCC5)nc4)cc3c21 + Nc1ccc(C#CCN(C(=O)Cc2ncc(C(F)(F)F)cc2C(F)(F)F)c2ccc(F)cc2)nn1
- pIC50 (second compound 0.0316 µM): < 5.00
- pIC50 (second compound 0.1 µM): < 5.00
- pIC50 (second compound 0.316 µM): < 5.00
- pIC50 (second compound 1 µM): < 5.00
- pIC50 (second compound 3.16 µM): < 5.00
- pIC50 (second compound 10 µM): < 5.00
- viability, T/C [3]: 92.8%
- viability, T/C [4]: 94%
- viability, T/C [5]: 98.2%
- viability, T/C [6]: 95.6%
- viability, T/C [37]: 105%
- viability, T/C [38]: 108%
- viability, T/C [9]: 95.3%
- viability, T/C [10]: 112%
- viability, T/C [11]: 104%
- viability, T/C [12]: 102%
- viability, T/C [39]: 98.2%
- viability, T/C [40]: 105%
- viability, T/C [15]: 92.7%
- viability, T/C [16]: 90.4%
- viability, T/C [17]: 127%
- viability, T/C [18]: 102%
- viability, T/C [41]: 114%
- viability, T/C [42]: 109%
- viability, T/C [21]: 98.8%
- viability, T/C [22]: 112%
- viability, T/C [23]: 114%
- viability, T/C [24]: 99.1%
- viability, T/C [43]: 113%
- viability, T/C [44]: 113%
- viability, T/C [27]: 91.7%
- viability, T/C [28]: 98.3%
- viability, T/C [29]: 109%
- viability, T/C [30]: 102%
- viability, T/C [45]: 119%
- viability, T/C [46]: 105%
- viability, T/C [33]: 85.7%
- viability, T/C [34]: 95.4%
- viability, T/C [35]: 98.7%
- viability, T/C [36]: 91.8%
- viability, T/C [47]: 105%
- viability, T/C [48]: 102%
